What was measured:
Format in all cases: in vivo
[1] = test system: Echinochloa crus-galli (ECHCG); assay: Pre-emergence herbicidal action against ECHCG
Procedure, shortened: (§1)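 Pre-emergence soil-surface spray, WP/EC formulation, 0.5% additive, 600 l/ha water, rates of 320 g/ha or lower. Greenhouse, ~3 wk. Visual score, % of untreated control (100% = plants dead, 0% = like control).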

[2] = test system: Amaranthus retroflexus (AMARE); assay: Post-emergence herbicidal action against AMARE
Procedure, shortened: (§2)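 Post-emergence greenhouse spray, one-leaf stage, 600 l/ha water plus 0.5% additive; WP or EC formulations; application rates 320 g/ha or lower. Visual % damage vs untreated controls at ~3 weeks.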

[3] = test system: Polygonum convolvulus (POLCO); assay: Post-emergence herbicidal action against POLCO
Procedure, shortened: as §2

[4] = test system: Avena fatua (AVEFA); assay: Pre-emergence herbicidal action against AVEFA; conditions: visual scoring after about 3 weeks vs untreated controls
Procedure, shortened: as §1

[5] = test system: Pharbitis purpurea (PHBPU); assay: Pre-emergence herbicidal action against PHBPU
Procedure, shortened: as §1

[6] = test system: Pharbitis purpurea (PHBPU); assay: Post-emergence herbicidal action against PHBPU
Procedure, shortened: as §2

[7] = test system: Abutilon theophrasti (ABUTH); assay: Post-emergence herbicidal action against ABUTH; conditions: visual rating about 3 weeks after treatment vs untreated controls (100% = plants have died, 0% = like control plants)
Procedure, shortened: as §2

[8] = test system: Polygonum convolvulus (POLCO); assay: Pre-emergence herbicidal action against POLCO
Procedure, shortened: as §1

[9] = test system: Verconica persica (VERPE); assay: Post-emergence herbicidal action against VERPE
Procedure, shortened: as §2

[10] = test system: Viola tricolor (VIOTR); assay: Pre-emergence herbicidal action against VIOTR
Procedure, shortened: as §1

[11] = 80 g/ha, visual rating about 3 weeks after treatment vs untreated controls (100% = plants have died, 0% = like control plants)
[12] = 320 g/ha, visual rating about 3 weeks after treatment

Row | Structure (SMILES) | Pre-emergence action against ECHCG in % ([1]; dosage 80 g/ha) [%] | Pre-emergence action against ECHCG in % ([1]; dosage 320 g/ha) [%] | Post-emergence action against AMARE in % [2, 11] [%] | Post-emergence action against AMARE in % [2, 12] [%] | Post-emergence action against POLCO in % ([3]; dosage 80 g/ha) [%] | Post-emergence action against POLCO in % ([3]; dosage 320 g/ha) [%] | Pre-emergence action against AVEFA in % ([4]; 80 g/ha) [%] | Pre-emergence action against AVEFA in % ([4]; 320 g/ha) [%] | Pre-emergence action against PHBPU in % ([5]; dosage 80 g/ha) [%] | Pre-emergence action against PHBPU in % ([5]; dosage 320 g/ha) [%] | Post-emergence action against PHBPU in % ([6]; dosage 80 g/ha) [%] | Post-emergence action against PHBPU in % ([6]; dosage 320 g/ha) [%] | Post-emergence action against ABUTH in % ([7]; 80 g/ha) [%] | Post-emergence action against ABUTH in % ([7]; 320 g/ha) [%] | Pre-emergence action against POLCO in % ([8]; dosage 80 g/ha) [%] | Pre-emergence action against POLCO in % ([8]; dosage 320 g/ha) [%] | Post-emergence action against VERPE in % ([9]; 320 g/ha, VERPE) [%] | Post-emergence action against VERPE in % ([9]; dosage 80 g/ha) [%] | Pre-emergence action against VIOTR in % ([10]; 320 g/ha, Viola tricolor) [%] | Pre-emergence action against VIOTR in % ([10]; dosage 80 g/ha) [%]
1 | CCOC(=O)[C@@H](C)Oc1nn(-c2ccccn2)c(-c2cncc(F)c2)c1Cl [Example I-184] | 90 | 100 | 80 | 80 | 80 | 80 | 80 | 90 | 80 | 90 | 90 | 90 | 80 | 90 | 90 | 90 | 90 | 90 | 100 | 100
2 | COC(=O)C(C)COC(=O)[C@@H](C)Oc1nn(-c2ccccn2)c(-c2cncc(F)c2)c1Br (some centres unmarked) [Example I-188] | 100 | 100 | – | 80 | 80 | 80 | 80 | 90 | 80 | 90 | 90 | 90 | 80 | 80 | 90 | 90 | 90 | 80 | 100 | 100
3 | CCOC(=O)COc1nn(-c2ccccn2)c(-c2ccc(F)nc2)c1Br [Example I-02] | – | 100 | 80 | 80 | 80 | 80 | 90 | 100 | – | 90 | 90 | 100 | 80 | 80 | 80 | 80 | 80 | 80 | 100 | 100
4 | O=C(O)COc1nn(-c2ncccc2F)c(-c2ccc(F)nc2)c1Br [Example I-08] | 80 | 100 | 80 | 90 | 90 | 90 | 80 | 90 | – | 80 | 80 | 80 | 80 | 90 | 80 | 100 | 90 | 90 | 100 | 100
5 | COC(=O)COc1nn(-c2ncccc2F)c(-c2ccc(F)nc2)c1Br [Example I-07] | – | 100 | 90 | 90 | 80 | 80 | – | 90 | – | 90 | 80 | 80 | 80 | 90 | 90 | 100 | 90 | 90 | 100 | 90
6 | C[C@@H](Oc1nn(-c2ccccn2)c(-c2cncc(F)c2)c1Cl)C(=O)O [Example I-218] | 90 | 100 | 80 | 80 | – | 80 | 80 | 90 | 90 | 90 | 90 | 100 | 80 | 80 | 90 | 90 | 80 | 80 | 100 | 100
7 | COC(=O)C(C)COC(=O)C(C)Oc1nn(-c2ccccn2)c(-c2ccc(F)nc2)c1Cl (centres unmarked) [Example I-291] | – | 90 | 80 | 80 | 80 | 80 | 80 | 90 | – | 80 | 80 | 90 | – | 80 | 80 | 90 | 80 | – | 100 | 90
